In data set [1] the test system is human colon carcinoma HT-29. Nature of the data set: Proliferation assay (IC50) under aerobic and hypoxic conditions, HT-29. To be noted: for RHT: HT-29, ratio Tirapazamine/test compound under hypoxic conditions; for HCR: HT-29, ratio of IC50 under aerobic and hypoxic conditions; for IC50: Homo sapiens, HT-29, hypoxic (anoxia <0.001% O2), 4 h exposure. Format: cell-based. The procedure: (§1) Evaluation of the Cytotoxicity of Compounds by Proliferation Assay (IC50) Under Aerobic and Hypoxic Conditions.
(§2) Compounds representative of the invention were evaluated under both aerobic and hypoxic conditions in a proliferation assay (IC50), using two cell lines: human colon carcinoma HT-29, and human cervical carcinoma SiHa.
(§3) Drug exposures were performed in 96-well plates (Nunc) using either a 37° C. humidified incubator (20% O2, 5% CO2) or in the incubator compartment (37° C.) of an anaerobic chamber (Shell Lab) where palladium catalyst scrubbed gas (90% N2, 5% H2, 5% CO2) ensures severe anoxia (<0.001% O2). For each experiment, compounds were simultaneously tested under both oxic and hypoxic conditions against the HT-29 cell line and included TPZ as an independent internal control at the front and back of the assay (n=2). Final data was pooled from a series of seven independent experiments and is calculated using inter-experimental means. In all cases, 8-methyl-5-nitroquinoline was used as a second internal control to confirm that strict hypoxia was present during the experiment. (Siim et al. Br. J. Cancer 1994, 70, 596-603). Cell cultures were grown in αMEM (Gibco) containing 5% heat inactivated FCS and maintained in exponential growth phase. For each individual experiment an appropriate number of cells were seeded (HT-29=1000) into wells in αMEM÷10% FCS+10 mM added glucose+100 μM 2′-deoxycytidine (2′dCyd), and allowed to attach for 3 h. High glucose (final concentration 17 mM) and the presence of 2′-dCyd minimize hypoxia-induced cell cycle arrest. Replicates were then exposed to BTOs, using 2-fold serial dilutions in triplicate, for a further 4 h. Subsequently cells were washed free of compound using complete media (without glucose/2′-dCyd) and allowed to grow for 5 (oxic) or 6 (anoxic) days. Plates were stained as described previously (Wilson et al., J. Med. Chem. 1989, 32, 31-38) and IC50 values determined.
(§4) IC50=The concentration of drug (in micromolar) to reduce viable cell numbers to 50% of those of control cell cultures grown under the same conditions but not exposed to drug
(§5) RHT=Relative hypoxic toxicity is defined as the ratio of concentrations of Tirapazamine/test compound to give equal cell killing under hypoxic conditions.
(§6) HCR=Hypoxic cytotoxicity ratio is defined as the ratio of drug concentrations under aerobic and hypoxic condition to produce equal cell survival (50%) determined by proliferation assay

A further data set relates to murine SCCVII. In words: Clonogenic assay under aerobic and hypoxic conditions, SCCVII. Format: cell-based. The settings on record: SCVIII cells; for IC90: Mus musculus, 1 h, hypoxic, 60 min drug exposure, SN (hypoxic), read-out: C10 hypoxic; for HCR: ratio of C10 under aerobic and hypoxic conditions; for RHT: ratio of hypoxic TPZ C10 to hypoxic compound C10. The protocol:
Evaluation of the Cytotoxicity of Compounds by Clonogenic Assay Under Aerobic and Hypoxic Conditions.
Compounds representative of the invention were evaluated under both aerobic and hypoxic conditions in clonogenic assays, using three cell lines: human colon carcinoma HT-29, murine SCCVII, and human lung adenocarcinoma LXFL. Clonogenic survival was determined using aerobic and hypoxic SCCVII cell suspensions. Drug exposures were performed using continuously stirred and gassed single cell suspensions (10^6 cells/mL) at 37° C., equilibrated with 5% CO2 in air or N2 for 60 min before drug addition. After a 60 min drug exposure cells were washed by centrifugation and plated to determine colony formation Cytotoxicity was measured as the concentration required to reduce plating efficiency to 10% of controls (C10). The hypoxic cytotoxicity ratio (HCR) was determined as the ratio of the C10 values under aerobic and hypoxic conditions. The relative hypoxic toxicity (RHT) was determined as the ratio of hypoxic TPZ C10 to hypoxic BTO C10. Abbreviations used in Table 2 are:
C10=The concentration of drug (in micromolar) to reduce viable cell numbers to 10% of those of control cell cultures grown under the same conditions but not exposed to drug
as §5
HCR=Hypoxic cytotoxicity ratio is defined as the ratio of drug concentrations under aerobic and hypoxic condition to produce equal cell survival (10%) determined by clonogenic assay

In data set [2] the test system is human cervical carcinoma SiHa. In words: Proliferation assay (IC50) under aerobic and hypoxic conditions, SiHa. Format: cell-based. The settings on record: for IC50: Homo sapiens, hypoxic, 4 h exposure; for RHT: ratio Tirapazamine/test compound under hypoxic conditions; for HCR: ratio of IC50 under aerobic and hypoxic conditions. The procedure: as §1, §2, §3, §4, §5, §6

Structures can show the parent of a compound that is named as a salt.

A word on the melting point: it is the temperature of the solid-liquid transition. For orientation: IC50 means the midpoint of a concentration-inhibition curve. A lower IC50 goes with greater potency in that assay.

For `Cc1ccc2c(c1)[n+]([O-])nc(NCCCNCCCNC(=O)c1cccc3nc4cccc(C)c4nc13)[n+]2[O-]` [Compound 77, 9-Methyl-N-[3-({3-[(7-methyl-1,4-dioxido-1,2,4-benzotriazin-3-yl)amino]propyl}amino)propyl]-1-phenazinecarboxamide], the melting point was 119 to 122 °C.
Same read-out and setting: in the case of `Cc1ccc2c(c1)[n+]([O-])nc(NCCCN(C)CCCNC(=O)c1cccc3nc4ccccc4nc13)[n+]2[O-]` [Compound 76, N-[3-(Methyl{3-[(7-methyl-1,4-dioxido-1,2,4-benzotriazin-3-yl)amino]propyl}amino)propyl]-1-phenazinecarboxamide] it was 118 to 122 °C.
For the compound `COCCOc1ccc2c(c1)[n+]([O-])nc(NCCCN(C)CCCNC(=O)c1cccc3cc4ccccc4nc13)[n+]2[O-]` [Compound 55, N-{3-[(3-{[7-(2-Methoxyethoxy)-1,4-dioxido-1,2,4-benzotriazin-3-yl]amino}propyl)(methyl)amino]propyl}-4-acridinecarboxamide], in data set [1], the RHT came to 47, the HCR is 97 and it took 124 nM to reach half-maximal inhibition (IC50). In the data set on murine SCCVII, the IC90 worked out at 1100 nM, the HCR turned out to be 63.6 and the RHT is 10. In addition, in data set [2], half-maximal inhibition (IC50) was put at 50 nM, the RHT is given as 72 and the HCR is 124.
In the case of `O=C(NCCCCCCNc1n[n+]([O-])c2ccccc2[n+]1[O-])c1ccnc2ccccc12` [Compound 13, N-{6-[(1,4-Dioxido-1,2,4-benzotriazin-3-yl)amino]hexyl}-4-quinolinecarboxamide], the melting point was 196 to 198 °C.
`Cc1ccc2c(c1)[n+]([O-])nc(NCCCN(C)CCCNC(=O)c1cccc3cc4ccccc4nc13)[n+]2[O-]` [Compound 74, N-[3-(Methyl{3-[(7-methyl-1,4-dioxido-1,2,4-benzotriazin-3-yl)amino]propyl}amino)propyl]-4-acridinecarboxamide] registered a melting point of 166 to 168 °C. Also, in data set [1], the RHT is recorded as 44.7, the HCR worked out at 95 and the IC50 worked out at 130 nM.
`O=C(NCCCNc1n[n+]([O-])c2ccccc2[n+]1[O-])c1cccc2cc3ccccc3nc12` (as salt: hydrochloride) [Compound 17, N-{3-[(1,4-Dioxido-1,2,4-benzotriazin-3-yl)amino]propyl}-4-acridinecarboxamide] showed a melting point of 192 °C.
The same measure, in the same setting: for `CN(CCCNC(=O)c1cccc2nc3ccccc3nc12)CCCc1n[n+]([O-])c2ccccc2[n+]1[O-]` (as salt: hydrochloride) [Compound 63, N-{3-[[3-(1,4-Dioxido-1,2,4-benzotriazin-3-yl)propyl](methyl)amino]propyl}-1-phenazinecarboxamide] the value was 173 °C; for `O=C(NCCOCCNc1n[n+]([O-])c2ccccc2[n+]1[O-])c1cccc2ccc(-c3ccncc3)nc12` [Compound 26, N-(2-{2-[(1,4-Dioxido-1,2,4-benzotriazin-3-yl)amino]ethoxy}ethyl)-2-(4-pyridinyl)-8-quinolinecarboxamide], 128 to 130 °C.
On the same count and under the same terms, in the case of `O=C(CCNc1ccnc2cc(Cl)ccc12)NCCCNc1n[n+]([O-])c2ccccc2[n+]1[O-]` [Compound 65, 3-[(7-Chloro-4-quinolinyl)amino]-N-{3-[(1,4-dioxido-1,2,4-benzotriazin-3-yl)amino]propyl}propanamide] it was 202 °C (dec.).
On the same count and under the same terms, for `O=C(NCCOCCNc1n[n+]([O-])c2ccccc2[n+]1[O-])c1cccc2cccnc12` [Compound 24, N-(2-{2-[(1,4-Dioxido-1,2,4-benzotriazin-3-yl)amino]ethoxy}ethyl)-8-quinolinecarboxamide] the value was 168 to 170 °C; for `CN(CCNC(=O)c1cccc2nc3ccccc3nc12)CCNc1n[n+]([O-])c2ccccc2[n+]1[O-]` [Compound 97, N-{2-[{2-[(1,4-Dioxido-1,2,4-benzotriazin-3-yl)amino]ethyl}(methyl)amino]ethyl}-1-phenazinecarboxamide], 163 to 165 °C.
Turning to `O=C(NCCOCCNc1n[n+]([O-])c2ccccc2[n+]1[O-])c1cccc2[nH]c(-c3ccccc3)nc12` [Compound 25, N-(2-{2-[(1,4-Dioxido-1,2,4-benzotriazin-3-yl)amino]ethoxy}ethyl)-2-phenyl-1H-benzimidazole-4-carboxamide], the melting point lay in the range of 203 to 207 °C.
The compound `Cl.O=C(NCCCNCCCNc1n[n+]([O-])c2ccccc2[n+]1[O-])c1cccc2nc3ccccc3nc12` [Compound 31, N-[3-({3-[(1,4-dioxido-1,2,4-benzotriazin-3-yl)amino]propyl}amino)propyl]-1-phenazinecarboxamide hydrochloride] came in with a melting point of 163 to 169 °C. Also, in data set [1], the RHT amounted to 163, the HCR stood at 5.3 and the IC50 worked out at 356 nM.
Consider `Cc1ccc2c(c1)[n+]([O-])c(NCCCNCCCNC(=O)c1cccc3nc4cccc(C)c4nc13)n[n+]2[O-]` [Compound 88, 9-Methyl-N-[3-({3-[(6-methyl-1,4-dioxido-1,2,4-benzotriazin-3-yl)amino]propyl}amino)propyl]-1-phenazinecarboxamide], for which the melting point was in the range of 80 to 83 °C.
On the same count and under the same terms, in the case of `Cc1cccc2nc3cccc(C(=O)NCCCNCCCNc4n[n+]([O-])c5ccccc5[n+]4[O-])c3nc12.Cl` it was 183 to 186 °C; in that of `O=C(NCCCCCCNc1n[n+]([O-])c2ccccc2[n+]1[O-])c1cccc2cc3ccccc3nc12` [Compound 12, N-{6-[(1,4-Dioxido-1,2,4-benzotriazin-3-yl)amino]hexyl}-4-acridinecarboxamide], 196 to 198 °C; in that of `Cc1ccc2c(c1)[n+]([O-])c(NCCCN(C)CCCNC(=O)c1cccc3nc4ccccc4nc13)n[n+]2[O-]` [Compound 87, N-[3-(Methyl{3-[(6-methyl-1,4-dioxido-1,2,4-benzotriazin-3-yl)amino]propyl}amino)propyl]-1-phenazinecarboxamide], 111 to 114 °C.
In the case of `CN(CCNC(=O)c1cccc2cc3ccccc3nc12)CCNc1n[n+]([O-])c2ccccc2[n+]1[O-]` [Compound 95, N-{2-[{2-[(1,4-Dioxido-1,2,4-benzotriazin-3-yl)amino]ethyl}(methyl)amino]ethyl}-4-acridinecarboxamide], in data set [1], the RHT is 71, the HCR was 74 and the IC50 came to 180 nM. For the same compound, in the data set on murine SCCVII, the IC90 is 1000 nM, the HCR came out at 400 and the RHT is listed as 11. For the same compound, in data set [2], it took 76 nM to reach half-maximal inhibition (IC50), the RHT is 48 and the HCR was found to be 89.
`CN(C)CCCC(=O)c1cc(NC(=O)c2cc(NC(=O)CCCNc3n[n+]([O-])c4ccccc4[n+]3[O-])cn2C)cn1C` [Compound 112, N-{5-[4-(Dimethylamino)butanoyl]-1-methyl-1H-pyrrol-3-yl}-4-({4-[(1,4-dioxido-1,2,4-benzotriazin-3-yl)amino]butanoyl}amino)-1-methyl-1H-pyrrole-2-carboxamide] gave a melting point of 140 to 145 °C.

For the origin of these results see US20070191372A1, “Dna-targeted benzotriazine 1,4-dioxides and their use in cancer therapy” (Auckland Uniservices Limited, priority 2002, published 2007).
